Like-named read-outs stand apart in the source and are kept apart here.
Columns and labels:
Format in all cases: in vivo
weeds = assay: Activity assay of compositions, soil sealing treatment (S); conditions: for pest or weed control at 7.5 g/ha: B 7.5 g a.i./ha; for pest or weed control at 300 g/ha: B 300 g a.i./ha
Text: The required active ingredient B was purchased from a reagent company or a technical material manufacturer or synthesized by a conventional method. The technical materials were all dissolved with acetone solvents and diluted with aqueous solution of 0.1% Tween® 80 emulsifier, which should be used immediately after dilution.
The test soil was quantitatively filled to ¾ of a pot, and then watered from the bottom of the pot to completely wet the soil to saturation. The seeds of the test weeds were accelerated to Just germinate, and then evenly and quantitatively broadcasted on the soil surface, covered with 0.5-1 cm soil according to the sizes of the seeds, and ready for use 72 hours after broadcasting.
Each treatment was repeated 4 times. Four pots were treated each time with 20 weed seeds per pot.
The seeds were planted in a 20 cm*30 cm square box. Water was added to 2-3 cm deep after sowing, then injected with the drug agent using a syringe, stirred evenly, and left to stand for 2 days to dry naturally. The soil was kept moist afterwards.
A method for investigating absolute numbers was employed. The whole seedlings of the survival weeds were cut along the soil surface with a blade, and the fresh weight of the weeds was weighed by an analytical balance. For dead weeds, the fresh weight thereof was considered zero.
The investigation was performed 21 days after the treatment for once in total.
The theoretical fresh weight inhibition rate of a mixed combination of each treatment was calculated by the Gowing method (E0═X+Y−X*Y/100), then compared with the measured inhibition rate (E) to evaluate the type of the combined action of the combination of the two on weeds. The combined action was a synergistic effect when E−E0 >10%; an antagonistic effect when E−E0<−10%; an additional effect when −10%≤E−E0≤10%. An optimal ratio was determined according to factors such as actual control effects, characteristics of herbicides, balance of the formulation, etc.

Echinochloa crusgalli = assay: Seedling stage sealing experiment for water-seeding; conditions: 120 g a.i./ha, seedling stage sealing, 15 days, fresh weight control rate
Digitaria sanguinalis = assay: as above; conditions: 120 g a.i./ha, seedling stage sealing, 15 days, fresh weight control rate
Procedure, shortened: (§1)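 Grades run from 0 (no effect) to 9 (completely dead), each band set by percent fresh-weight growth control. Application by spray tower at 120, 60, 30 and 15 g a.i./ha in triplicate; evaluated after 15 days of greenhouse culture.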

Leptochloa chinensis = assay: as above; conditions: 120 g a.i./ha, 15 days, fresh weight control rate
Procedure, shortened: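 Seeds sown in soil-filled bowls kept moist in water-filled boxes; compound in acetone diluted with water and spray-applied at 120, 60, 30 and 15 g a.i./ha, triplicate. After 15 days in greenhouse, fresh-weight growth control scored on a 0–9 scale (9 = dead, 0 = no effect), averaged.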

Echinochloa phyllopogon = assay: as above; conditions: 120 g a.i./ha, seedling stage sealing, 15 days, fresh weight control rate
Procedure, shortened: as §1

Huaidao (rice cultivar) = assay: Seedling stage sealing experiment for water-seeding (crop safety); conditions: 120 g a.i./ha, seedling stage sealing, 15 days, fresh weight control rate
Procedure, shortened: as §1

[1] = soil, Rotala indica, S, read-out: Control effect of B applied alone in a corresponding dose (%)
[2] = soil, Rotala indica, S, B 15 g a.i./ha, read-out: Control effect of B applied alone in a corresponding dose (%)
[3] = soil, Paspalum distichum, S, B 30 g a.i./ha, read-out: Control effect of B applied alone in a corresponding dose (%)
[4] = soil, Paspalum distichum, S, B 60 g a.i./ha, read-out: Control effect of B applied alone in a corresponding dose (%)
[5] = soil, Paspalum distichum, S, read-out: Control effect of B applied alone in a corresponding dose (%)
[6] = soil, Paspalum distichum, S, B 15 g a.i./ha, read-out: Control effect of B applied alone in a corresponding dose (%)
[7] = soil, Rotala indica, S, B 150 g a.i./ha, read-out: Control effect of B applied alone in a corresponding dose (%)
[8] = Rotala indica, soil, read-out: Control effect of B applied alone in a corresponding dose (%)
[9] = Rotala indica, S, B 15 g a.i./ha
[10] = Rotala indica, S, B 30 g a.i./ha

Compound	Echinochloa crusgalli activity level (growth control rate) (Echinochloa crusgalli)	Digitaria sanguinalis activity level (growth control rate) (Digitaria sanguinalis)	Leptochloa chinensis activity level (growth control rate) (Leptochloa chinensis)	other results
CCc1ccc(-n2cnc(C(F)(F)F)n2)nc1Oc1cccc(C(F)(F)F)c1				pest or weed control at 7.5 g/ha (weeds; [1]): 47.1%; pest or weed control at 15 g/ha (weeds; [2]): 63.6%
CCC[S@@+]([O-])c1c(C(F)(F)F)ccc(C(=O)Nc2nnc(C)o2)c1F				pest or weed control at 15 g/ha (weeds; [2]): 35.8%; pest or weed control at 30 g/ha (weeds; soil, Rotala indica, S, B 30 g a.i./ha, read-out: Control effect of B applied alone in a corresponding dose (%)): 46.6%
COC(=O)[C@@H](C)O/N=C/c1cc(-n2c(=O)cc(C(F)(F)F)n(C)c2=O)c(F)cc1Cl				pest or weed control at 7.5 g/ha (weeds; [1]): 47.9%; pest or weed control at 15 g/ha (weeds; [2]): 56.6%
CC1(C)CON(Cc2ccc(Cl)cc2Br)C1=O				pest or weed control at 30 g/ha (weeds; [3]): 37.8%; pest or weed control at 60 g/ha (weeds; [4]): 51.3%
CC(C)C12CCC(C)(O1)C(OCc1c(F)cccc1Br)C2 (stereo not shown)				pest or weed control at 7.5 g/ha (weeds; [5]): 46.3%; pest or weed control at 15 g/ha (weeds; [6]): 57.4%
Cc1ccccc1CO[C@@H]1C[C@@]2(C(C)C)CC[C@]1(C)O2 (racemic) [Cinmethylin, cinmethylin]				pest or weed control at 7.5 g/ha (weeds; [5]): 34.8%; pest or weed control at 15 g/ha (weeds; [6]): 47.6%
CN1C[C@H](c2cc(F)cc(F)c2)[C@@H](C(=O)Nc2cnn(C)c2Cl)C1=O [115′]	9	8 (Level 8: growth control rate greater than or equal to 90% and less than 100%)	8 (Level 8: growth control rate greater than or equal to 90% and less than 100%)	
Cc1cccc([C@H]2CN(C)C(=O)[C@@H]2C(=O)Nc2cnn(C(F)F)c2Cl)c1 [131′]	9	9	9	Echinochloa phyllopogon activity level (growth control rate) (Echinochloa phyllopogon): 9
Cc1cccc([C@H]2CN(C)C(=O)[C@@H]2C(=O)Nc2cnn(C)c2C2CC2)c1 [139′]	9	7 (Level 7: growth control rate greater than or equal to 80% and less than 90%)	9	
C=CCn1ncc(NC(=O)[C@H]2C(=O)N(C)C[C@@H]2c2cccc(C(F)(F)F)c2)c1Cl [162′]	9	8 (Level 8: growth control rate greater than or equal to 90% and less than 100%)	9	
CN1C[C@H](c2cc(C(F)(F)F)cc(C(F)(F)F)c2)[C@@H](C(=O)Nc2cnn(C)c2Cl)C1=O [295′]	7 (Level 7: growth control rate greater than or equal to 80% and less than 90%)	9	9	Echinochloa phyllopogon activity level (growth control rate) (Echinochloa phyllopogon): 6 (Level 6: growth control rate greater than or equal to 70% and less than 80%)
COc1cc(F)cc([C@H]2CN(C)C(=O)[C@@H]2C(=O)Nc2cnn(C)c2Cl)c1 [298′]	7 (Level 7: growth control rate greater than or equal to 80% and less than 90%)	9	7 (Level 7: growth control rate greater than or equal to 80% and less than 90%)	Echinochloa phyllopogon activity level (growth control rate) (Echinochloa phyllopogon): 6 (Level 6: growth control rate greater than or equal to 70% and less than 80%)
Cc1ccc([C@H]2CN(C)C(=O)[C@@H]2C(=O)Nc2cnn(C)c2Cl)cc1F [313′]	9	9	9	
CCOCN(C(=O)CCl)c1c(C)cccc1CC [Acetochlor, acetochlor]				pest or weed control at 150 g/ha (weeds; [7]): 46.2%; pest or weed control at 300 g/ha (weeds; [1]): 66.5%
COP(=S)(OC)SCC(=O)N(c1ccc(Cl)cc1)C(C)(C)C [Anilofos, anilofos]				pest or weed control at 75 g/ha (weeds; [8]): 22.4%; pest or weed control at 150 g/ha (weeds; [8]): 31.8%
CS(=O)(=O)c1ccc(C(=O)C2=C(Sc3ccccc3)C3CCC(C3)C2=O)c(Cl)c1 (stereo not shown) [Benzobicyclon, benzobicyclon]				Control effect of B applied alone in a corresponding dose (%) (weeds; [9]): 32.8%; Control effect of B applied alone in a corresponding dose (%) (weeds; [10]): 49.6%
Cc1nn(C)cc1C(=O)Oc1c(C(=O)c2ccc(C(F)(F)F)cc2S(C)(=O)=O)c(C)nn1C [Bipyrazone, bipyrazone]				Control effect of B applied alone in a corresponding dose (%) (weeds; [9]): 24.5%; Control effect of B applied alone in a corresponding dose (%) (weeds; [10]): 38.8%
CC1(C)CON(Cc2ccc(Cl)cc2Cl)C1=O [Bixlozone, bixlozone]				Control effect of B applied alone in a corresponding dose (%) (weeds; Paspalum distichum, S, B 30 g a.i./ha): 41.7%; Control effect of B applied alone in a corresponding dose (%) (weeds; Paspalum distichum, S, B 60 g a.i./ha): 52.8%
CCCCOCN(C(=O)CCl)c1c(CC)cccc1CC [Butachlor, butachlor]				pest or weed control at 150 g/ha (weeds; [7]): 42.4%; pest or weed control at 300 g/ha (weeds; [1]): 58.6%
CC1(C)CON(Cc2ccccc2Cl)C1=O [Clomazone, clomazone]				pest or weed control at 30 g/ha (weeds; [3]): 44.3%; pest or weed control at 60 g/ha (weeds; [4]): 51.5%
Cc1ccc(C2CN(C)C(=O)C2C(=O)Nc2cnn(C)c2Cl)cc1C(F)(F)F (stereo not shown) [Compound 56]	9	9	9	Echinochloa phyllopogon activity level (growth control rate) (Echinochloa phyllopogon): 6 (Level 6: growth control rate greater than or equal to 70% and less than 80%)
CN1CC(c2cc(F)c(F)c(F)c2)C(C(=O)Nc2cnn(C)c2Cl)C1=O (stereo not shown) [Compound 114]	9	9	9	Echinochloa phyllopogon activity level (growth control rate) (Echinochloa phyllopogon): 6 (Level 6: growth control rate greater than or equal to 70% and less than 80%)
Cc1cc(C)cc(C2CN(C)C(=O)C2C(=O)Nc2cnn(C)c2Cl)c1 (stereo not shown) [Compound 117]	9	9	9	Echinochloa phyllopogon activity level (growth control rate) (Echinochloa phyllopogon): 6 (Level 6: growth control rate greater than or equal to 70% and less than 80%); Huaidao (rice cultivar) plant damage level (Huaidao (rice cultivar)): 0
COc1c(Cl)ccc(C2CN(C)C(=O)C2C(=O)Nc2cnn(C)c2Cl)c1F (stereo not shown) [Compound 118]	9	9	6 (Level 6: growth control rate greater than or equal to 70% and less than 80%)	Echinochloa phyllopogon activity level (growth control rate) (Echinochloa phyllopogon): 6 (Level 6: growth control rate greater than or equal to 70% and less than 80%)
CN1CC(c2cccc(C(F)(F)F)c2)C(C(=O)Nc2cnn(C)c2)C1=O (stereo not shown) [Compound 156]	6 (Level 6: growth control rate greater than or equal to 70% and less than 80%)	7 (Level 7: growth control rate greater than or equal to 80% and less than 90%)		Echinochloa phyllopogon activity level (growth control rate) (Echinochloa phyllopogon): 6 (Level 6: growth control rate greater than or equal to 70% and less than 80%); Huaidao (rice cultivar) plant damage level (Huaidao (rice cultivar)): 0
CCCCOc1cccc(C2CN(C)C(=O)C2C(=O)Nc2cnn(C)c2Cl)c1 (stereo not shown) [Compound 221]		9	9	
CN1CC(c2ccc(Cl)s2)C(C(=O)Nc2cnn(C)c2Cl)C1=O (stereo not shown) [Compound 339]	9	7 (Level 7: growth control rate greater than or equal to 80% and less than 90%)	6 (Level 6: growth control rate greater than or equal to 70% and less than 80%)	
